For series [1], the system named is TNF-α. The conditions noted are these: read-out: Approximate IC50 for cytokine production TNF-α; human T-lymphocytes stimulated with anti-CD3/anti-CD28 beads, 24 hours; average of cultures of two donors.
Description: (§1) Assays with human cells are used to determine if compounds I) inhibit T-cell activation (using cytokine release as a biomarker), and 2) reduce or prevent cytokine-induced pathologies.
(§2) Compounds were incubated with stimulated human T-lymphocytes in an in vitro system designed to measure cytokine production; cytokine production is indicative of T-cell activation and consequential cytokine-induced damage in vivo. […] Cells were treated in triplicate with compounds or vehicle (DMSO) in cell culture medium for 2 hours at 37 deg C. Cells were then stimulated with 5 μL of anti-CD3/anti-CD28 ExpandBeads (DynaBeads, Invitrogen 111.31) and incubated for 24 hours. Compounds were tested at three concentrations: 0.02, 0.2 and 2 μM. Untreated controls were performed for each cytokine marker. The following cytokines were quantitatively determined using specific ELISA kits, according to manufacturer instructions: IL2 (Eli-pair, Diaclone), IL4 (ImmunoTools 313.300.49), tumor necrosis factor alpha (TNFα, ImmunoTools 313.330.1), and Interferon gamma (IFN-γ) Eli-pair, Diaclone).
Series [2] deals with IL4. The settings on record: read-out: Approximate IC50 for cytokine production IL4; human T-lymphocytes stimulated with anti-CD3/anti-CD28 beads, 24 hours; average of cultures of two donors.
Description: as §1, §2
The test system of series [3] is IL2. The conditions noted are these: read-out: Approximate IC50 for cytokine production IL2; human T-lymphocytes stimulated with anti-CD3/anti-CD28 beads, 24 hours; average of cultures of two donors.
Description: as §1, §2
The test system of series [4] is IFN-γ. The settings on record: read-out: Approximate IC50 for cytokine production IFN-γ; human T-lymphocytes stimulated with anti-CD3/anti-CD28 beads, 24 hours; average of cultures of two donors.
Description: as §1, §2
Series [5] deals with T-cell proliferation (T-cells isolated from mouse spleens). The conditions noted are these: read-out: IC50 MLR; C57BL/6 responder and irradiated BALB/c stimulator spleen cells, 5 days.
Description: Murine Mixed Lymphocyte Response (MLR) assay: This assay monitored T-cell proliferation by measurement of tritiated thymidine incorporation into DNA of T-cells isolated from mouse spleens; T-cell proliferation is directly proportional to tritium incorporation into DNA. Pooled spleen cells were prepared from three mice each of two strains: three C57BL/6 and three BALB/c mice. The C57BL/6 mice were used as the Responders (R) and BALB mice were the Stimulators (S) in the MLR. Complete medium consisted of RPMI 1640 supplemented with 25 mM HEPES, 10% heat-inactivated low background fetal bovine serum, 50 μM 2-mercatoethanol, 2 mM L-glutamine, and antibiotics.
The BALB/c spleen cells were gamma irradiated at 3000 Roentgen in a Bevill irradiator and washed once with medium to use as S cells; the stock of S cells was 1.6×10^6/mL in complete medium. The R cells were stocked at 8×10^5/mL in complete medium. Final cell densities were 2×10^5 R and 4×10^5 S per test well in a 96-well microtiter plate. Compounds were diluted from a 10 mM stock solution in DMSO into culture medium; compounds were tested at 10 concentrations between 0.001 and 30 μM (three-fold dilutions).
Background control wells contained 150 μL of medium/0.3% DMSO and 50 μL of R cells (2×10^5/well). All other wells contained 100 μL of medium/0.3% DMSO or compound (also in 0.3% DMSO), 50 μL of R cells (2×10^S/well), and 50 μL of S cells (4×10^5/well). Plates were incubated at 37° C. in 5% CO2 for 5 days, and subsequently pulsed with 1 μCi/well of 3H-thymidine for 6-18 hours. Cells were harvested, and tritium incorporation was measured using a scintillation counter.
In series [6] the test system is chorio-allantoic membranes (CAM) of fertilized chicken eggs. The conditions noted are these: for Classification: HET-CAM classification of irritation potential; for Total Score: HET-CAM, sum of scores, average across eggs.
Description: In this test, chorio-allantoic membranes (CAM) of fertilized chicken eggs are exposed to a solution of the test substance in sterile water. During an incubation period of approximately 5 minutes, irritancy is assessed by visual inspection of the CAM blood vessel network for haemorrhage, lysis and/or coagulation. The time of onset or appearance of each of these effects is scored numerically, the scores are summed to give a single numerical value, and an average numerical score across several eggs is obtained.
For series [7] the following is noted: artificial tear formulation.
Description: The solubilities of compounds in artificial tear formulations were determined using turbidimetric titration (Schote, et al., 2002. J Pharm Sciences 91(3):856). The different tear formulations are buffered and contain various physiological electrolytes including, sodium, potassium, phosphate, and chloride. The formulations differ primarily in the “active” ingredients that provide lubrication and viscosity.
For series [8], the system named is eyes of rabbits. The settings on record: 0.05% (w/w) in an artificial tear formulation, instillation in right eyes over three days.
Description: The compounds of the invention were evaluated for tolerability upon instillation in the eyes of rabbits over a three day test period. Rabbits receive five instillations within 20 minutes of fifty microliters of a solution of the test substance in vehicle once on Day 1, twice on Day 2 and four times on Day 3 in the right eyes. Evaluation of ocular irritancy was performed using the Draize scale (Draize et al. J. Pharmacol. Exp. Ther. 1944. 82: 377).
Setting [9] is: HET-CAM score, approximately 5 minutes incubation.

The results in this text go back to patent publication US8551952B2, “Methods for the treatment and prevention of ocular disorders” (Scynexis, Inc., priority 2006, dated 2013).

Like-named read-outs stand apart in the source and are kept apart here.

On to `CC=CCC(C)C(O)C1C(=O)NC(CC)C(=O)N(C)C(OCCN2CCCCC2)C(=O)N(C)C(CC(C)C)C(=O)NC(C(C)C)C(=O)N(C)C(CC(C)C)C(=O)NC(C)C(=O)NC(C)C(=O)N(C)C(CC(C)C)C(=O)N(C)C(CC(C)C)C(=O)N(C)C(C(C)C)C(=O)N1C` (stereo not shown) [D, 3-[2-(piperidin-1-yl)ethoxy]cyclosporin], for which the IC50 was about 2000 nM in series [1]; about 2000 nM in series [2]; about 1000 nM in series [3]; about 1000 nM in series [4]; 200 nM in series [5]. Further, in series [6], the Classification entry is listed as “Slightly irritant”. The compound further showed a Coagulation in series [6] (setting [9]) of 0. For the same compound, in series [6] (setting [9]), the Haemorhage was 0. This compound gave a Lysis in series [6] (setting [9]) of 3. In addition, the “Total Score” value in series [6] was 3.0.
Regarding “3-[2-(morpholin-4-yl)ethoxy]cyclosporin [F]”, the IC50 in series [1] is about 200 nM; in series [2], about 200 nM; in series [3] it was about 20 nM; in series [4], about 200 nM; in series [5], 500 nM.
For `C/C=C/C[C@@H](C)[C@@H](O)[C@H]1C(=O)N[C@@H](CC)C(=O)N(C)C(OCCN(C)C)C(=O)N(C)[C@@H](CC(C)C)C(=O)N[C@@H](C(C)C)C(=O)N(C)[C@@H](CC(C)C)C(=O)N[C@@H](C)C(=O)N[C@H](C)C(=O)N(C)[C@@H](CC(C)C)C(=O)N(C)[C@@H](CC(C)C)C(=O)N(C)[C@@H](C(C)C)C(=O)N1C` (stereo partly shown) [Compound A, 3-[2-(N,N-dimethylamino)ethoxy]cyclosporin], the IC50 was about 2000 nM in series [1], about 2000 nM in series [2], about 2000 nM in series [4] and 200 nM in series [5]. The “Minimum Solubility” value in series [7] (pH 6.2, Polyethylene glycol 400 (1%), Polyvinyl alcohol (1%)) was found to be 151 µM; in series [7] (pH 6.7 (adjusted with HCl from 7.4), Dextran 70 (0.1%), Hydroxypropyl methyl-cellulose 2910 (0.3%)), 350 µM; in series [7] (pH 6.8, Carboxymethylcellulose sodium (0.5%)), 130 µM; in series [7] (pH 7.3, Propylene Glycol (0.95%), Glycerin (0.3%)) it was 117 µM; in series [7] (pH 7.4, Dextran 70 (0.1%), Hydroxypropyl methyl-cellulose 2910 (0.3%)) it was 141 µM. In series [6], the Classification result is listed as “Slightly irritant”. Besides, in series [6] (setting [9]), the Lysis is 3.5. In addition, the “Total Score” value in series [6] came to 3.5. Further, in series [8], the “Ocular tolerability (Draize scale)” value was “very well tolerated”.
